According to patent publication US9403812B2, “Triazole derivatives as Wnt signaling pathway inhibitors” (OSLO UNIVERSITY HOSPITAL, HF, priority 2010, dated 2016):

Key:
[1] = Stability in human liver microsomes; assay type: in vitro ADME; details: both sexes, pooled human liver microsomes, 0.5 mg/mL protein, 3 μM compound, pH 7.4, 37° C., NADPH, read-out: T ½ human liver microsomes
Protocol: Pooled human or rat liver microsomes (pooled male and female) were prepared and stored at −80° C. prior to use. […] The final incubation volume was 25 μL. A control incubation was included for each compound tested in which 0.1M phosphate buffer (pH 7.4) was added instead of NADPH (minus NADPH). Two control compounds were included with each species. All incubations were performed singularly for each test compound.
The reactions were stopped by the addition of 50 μL methanol containing internal standard at the appropriate time points. The incubation plates were centrifuged at 2,500 rpm for 20 mins at 4° C. to precipitate the protein.
Following protein precipitation, the sample supernatants were combined in cassettes of up to 4 compounds and analysed using Cyprotex generic LC-MS/MS conditions. […] The time point at which 30-50% of parent had degraded could then be investigated at 3 different levels of metabolite profiling and/or identification.
From a plot of ln peak area ratio (compound peak area/internal standard peak area) against time, the gradient of the line is determined. Subsequently, half-life and intrinsic clearance are calculated using the equations below: Elimination rate constant (k)=(−gradient)
[formula] [formula] • where V=Incubation volume (μL/mg microsomal protein).

[2] = tested on: STF/REN HEK293 cells; test: Wnt3a-induced ST-Luc/Renilla luciferase reporter assay in STF/REN HEK293 cells; assay type: cell-based; details: Homo sapiens, 24 hours compound in 50% Wnt3a conditioned media, average of multiple experiments
Protocol: HEK293 cells (80,000 cells per well) were seeded in 96-well plates coated with poly-L lysine. 24 hours after seeding, the cells were incubated for an additional 24 hours with various compound concentrations in 50% Wnt3a containing conditioned media (from L Wnt3a-expressing cells (ATCC)). A minimum of three replicates was used for each sample. After compound exposure, the cells were lysed and the firefly luciferase and Renilla activities were measured on a GloMax® 96 Microplate Luminometer with Dual Injectors (Promega).
XLfit (idbs) was used to determine the IC50 values in inhibition experiments. The data were fit to the following formula:
IC50: Langmuir Binding Isotherm: fit=((A+(B*x))+(((C−B)*(1−exp((−1*D)*x)))/D)) res=(y−fit)
All values shown are average values from multiple experiments.

[3] = tested on: COLO205 cells; test: IncuCyte cell proliferation assay, COLO205; assay type: cell-based; details: 0.1, 1, 5 μmol/L
Protocol: (§1) All cells were purchased from ATCC (American Type Culture Collection) and maintained according to the supplier's recommendations. Cells used were RKO, HCT-15, WiDr, HT29, DLD-1, COLO320DM and COLO205 cells. 1,000 cells were seeded in 96-well plates with the recommended media. […] All samples were assessed in a minimum of six replicates. Plates were incubated in an IncuCyte™ (Essen BioScience) inside a cell culture incubator. Images were captured every second hour to monitor cell proliferation. Mutations in the Adenomatouse Polyposis Coli (APC) gene, which occur in most colorectal cancers (CRC), lead to ineffective degradation of β-catenin and aberrant up-regulation of Wnt signaling. As a result, CRC cells may undergo cell cycle arrest as a result of antagonized canonical Wnt. Therefore, the kinetics of cell proliferation was monitored in selected Wnt responsive CRC cell lines by using an IncuCyte life tracking system.

[4] = tested on: HCT-15 cells; test: IncuCyte cell proliferation assay, HCT-15; assay type: cell-based; details: 0.1, 1, 5 μmol/L
Protocol: as §1

[5] = tested on: HT29 cells; test: IncuCyte cell proliferation assay, HT29; assay type: cell-based; details: 0.1, 1, 5 μmol/L
Protocol: as §1

[6] = tested on: COLO320DM cells; test: IncuCyte cell proliferation assay, COLO320DM; assay type: cell-based; details: 0.1, 1, 5 μmol/L
Protocol: as §1

[7] = tested on: AXIN2; test: Immunostaining of AXIN2 in SW480 cells; assay type: cell-based; details: 0.5 μmol/L, 18 hours, confocal microscopy
Protocol: (§2) After incubation, the cells were fixed in 4% PFA in PBS for 10 minutes. Immunostaining was performed as described in standard protocols. Primary antibodies used were β-catenin (610153, BD Transduction Laboratories™) or AXIN2 (76G6, Cell Signaling Technology). Secondary antibodies used were DyLight549 (555) donkey-anti-mouse and Cy2-donkey-anti-rabbit (both Jackson ImmunoResearch, 1:1000). The samples were imaged using a Zeiss Axiovert 200M Fluorescence/Live cell Imaging Microscope at 40 times magnification. A Zeiss LSM780 at 63 times magnification was used for confocal microscopy

[8] = tested on: β-catenin; test: Immunostaining of β-catenin in SW480 cells; assay type: cell-based; details: 500 nmol/L, 18 hours, immunofluorescence
Protocol: as §2

[9] = tested on: RKO cells; test: IncuCyte cell proliferation assay, RKO; assay type: cell-based; details: RKO (Wnt-independent control, wild type APC); 0.1, 1, 5 μmol/L
Protocol: as §1

[10] = tested on: WiDr cells; test: IncuCyte cell proliferation assay, WiDr; assay type: cell-based; details: 0.1, 1, 5 μmol/L
Protocol: as §1

[11] = tested on: DLD-1 cells; test: IncuCyte cell proliferation assay, DLD-1; assay type: cell-based; details: 0.1, 1, 5 μmol/L
Protocol: as §1

[12] = biological target: T1, PARP1 (Homo sapiens, UniProt P09874); test: Chemiluminescent Assay Kit, PARP1; assay type: biochemical
T1 construct: purchased BPS Bioscience, Nordic Biosite 80551
T1 sequence (P09874 whole entry): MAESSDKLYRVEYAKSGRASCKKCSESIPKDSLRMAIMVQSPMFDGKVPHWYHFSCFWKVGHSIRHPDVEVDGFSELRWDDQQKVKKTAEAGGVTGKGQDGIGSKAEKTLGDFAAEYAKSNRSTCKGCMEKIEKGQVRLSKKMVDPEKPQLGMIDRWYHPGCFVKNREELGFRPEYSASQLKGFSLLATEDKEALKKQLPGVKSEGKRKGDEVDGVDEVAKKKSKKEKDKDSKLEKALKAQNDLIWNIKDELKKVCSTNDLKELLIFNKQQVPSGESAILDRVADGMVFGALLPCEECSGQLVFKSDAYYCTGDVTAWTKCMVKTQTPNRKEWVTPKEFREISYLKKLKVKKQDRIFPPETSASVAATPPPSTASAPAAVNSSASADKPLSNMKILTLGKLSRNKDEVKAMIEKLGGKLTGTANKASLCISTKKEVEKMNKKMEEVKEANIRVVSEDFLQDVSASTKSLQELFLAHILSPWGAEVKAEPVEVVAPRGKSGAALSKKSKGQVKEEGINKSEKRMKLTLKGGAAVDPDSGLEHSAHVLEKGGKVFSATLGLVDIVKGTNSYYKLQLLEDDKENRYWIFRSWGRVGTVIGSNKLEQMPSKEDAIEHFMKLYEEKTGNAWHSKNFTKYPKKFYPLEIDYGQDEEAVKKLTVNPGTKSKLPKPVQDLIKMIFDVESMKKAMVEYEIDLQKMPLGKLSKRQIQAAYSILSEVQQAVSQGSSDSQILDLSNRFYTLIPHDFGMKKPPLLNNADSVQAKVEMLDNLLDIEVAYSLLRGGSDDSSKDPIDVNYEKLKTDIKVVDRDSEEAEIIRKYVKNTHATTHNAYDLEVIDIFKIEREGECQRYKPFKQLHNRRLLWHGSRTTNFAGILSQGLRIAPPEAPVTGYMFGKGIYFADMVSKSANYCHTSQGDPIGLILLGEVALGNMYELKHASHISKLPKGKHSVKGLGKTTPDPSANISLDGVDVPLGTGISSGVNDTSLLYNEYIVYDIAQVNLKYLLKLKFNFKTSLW

SMILES	half-life at 3 μM [1]	IC50 [2]	other results
COc1cc(-c2nnc(/C=C/c3nnc(-c4ccc(F)cc4)n3-c3ccccc3Cl)o2)ccn1 [(6)]	48 min	1200 nM	
COc1cc(C(=O)NNC(=O)/C=C/c2nnc(-c3ccc(F)cc3)n2-c2ccccc2Cl)ccn1 [(7)]		> 10000 nM	
Oc1cc(-c2nnc(/C=C/c3nnc(-c4ccc(F)cc4)n3-c3ccccc3Cl)o2)ccn1 [(8)]	128 min	6300 nM	
COc1cc(-c2nnc(/C=C/c3nnc(-c4ccc(Cl)cc4Cl)n3-c3ccccc3Cl)o2)ccn1 [Compound (1), 4-(5-((E)-2-(5-(2,4-dichlorophenyl)-4-(2-chlorophenyl)-4H-1,2,4-triazol-3-yl)vinyl)-1,3,4-oxadiazol-2-yl)-2-methoxypyridine]	162 min	940 nM	
COc1cc(-c2nnc(/C=C/c3nnc(-c4ccc(S(C)(=O)=O)cc4)n3-c3ccccc3Cl)o2)ccn1 [Compound (2), 4-(5-((E)-2-(4-(2-chlorophenyl)-5-(4-(methylsulfonyl)phenyl)-4H-1,2,4-triazol-3-yl)vinyl)-1,3,4-oxadiazol-2-yl)-2-methoxypyridine]	224 min	280 nM	
COc1cc(-c2nnc(/C=C/c3nnc(-c4ccncc4)n3-c3ccccc3Cl)o2)ccn1 [Compound (3), 4-(4-(2-chlorophenyl)-5-((E)-2-(5-(2-methoxypyridin-4-yl)-1,3,4-oxadiazol-2-yl)vinyl)-4H-1,2,4-triazol-3-yl)pyridine]	37.6 min	190 nM	
COc1cc(-c2nnc(/C=C/c3nnc(-c4ccc(Cl)cn4)n3-c3ccccc3Cl)o2)ccn1 [Compound (4), 5-chloro-2-(4-(2-chlorophenyl)-5-((E)-2-(5-(2-methoxypyridin-4-yl)-1,3,4-oxadiazol-2-yl)vinyl)-4H-1,2,4-triazol-3-yl)pyridine]	44.9 min	240 nM	
COc1cc(-c2nnc(/C=C/c3nnc(-c4nc(C)no4)n3-c3ccccc3Cl)o2)ccn1 [Compound (5), 4-(5-((E)-2-(4-(2-chlorophenyl)-5-(3-methyl-1,2,4-oxadiazol-5-yl)-4H-1,2,4-triazol-3-yl)vinyl)-1,3,4-oxadiazol-2-yl)-2-methoxypyridine]	5.41 min	> 10000 nM	
CS(=O)(=O)c1ccc(-c2nnc(/C=C/c3nnc(-c4ccc(C#N)cc4)o3)n2-c2ccccc2Cl)nc1 [Compound (10), (E)-4-(5-(2-(4-(2-chlorophenyl)-5-(5-(methylsulfonyl)pyridin-2-yl)-4H-1,2,4-triazol-3-yl)vinyl)-1,3,4-oxadiazol-2-yl)benzonitrile]		50 nM	cell growth inhibition [3]: dose-dependent growth inhibition; cell growth inhibition [4]: dose-dependent growth inhibition; cell growth inhibition [5]: dose-dependent growth inhibition; cell growth inhibition [6]: dose-dependent growth inhibition; levels of cytoplasmic AXIN2 [7]: significantly increased; nuclear β-catenin [8]: strong reduction; total β-catenin [8]: general reduction; cell growth inhibition [9]: did not; cell growth inhibition [10]: dose-dependent growth inhibition; cell growth inhibition [11]: dose-dependent growth inhibition; inhibition of PARP1 ([12]; at doses up to 20 μmol/L): no inhibition; IC50 ([12]; in vitro, table, read-out: IC50 value, PARP): > 20000 nM
COc1cc(-c2nnc(/C=C/c3nnc(-c4ccncn4)n3-c3ccccc3Cl)o2)ccn1 [Compound (11), 4-(4-(2-chlorophenyl)-5-((E)-2-(5-(2-methoxypyridin-4-yl)-1,3,4-oxadiazol-2-yl)vinyl)-4H-1,2,4-triazol-3-yl)pyrimidine]	59.6 min	80 nM	
COc1cc(-c2nnc(/C=C/c3nnc(-c4ccc(S(C)(=O)=O)cn4)n3-c3ccccc3Cl)o2)ccn1 [Compound (12), 2-(4-(2-chlorophenyl)-5-((E)-2-(5-(2-methoxypyridin-4-yl)-1,3,4-oxadiazol-2-yl)vinyl)-4H-1,2,4-triazol-3-yl)-5-(methylsulfonyl)pyridine]	37.1 min	70 nM	
CCOc1ccc(-c2nnc(/C=C/c3nnc(-c4ccnc(OC)c4)o3)n2-c2ccccc2Cl)nc1 [Compound (13), 2-(4-(2-chlorophenyl)-5-((E)-2-(5-(2-methoxypyridin-4-yl)-1,3,4-oxadiazol-2-yl)vinyl)-4H-1,2,4-triazol-3-yl)-5-ethoxypyridine]	212 min	110 nM	
CS(=O)(=O)c1ccc(-c2nnc(/C=C/c3nnc(-c4ccc(Cl)cc4)o3)n2-c2ccccc2Cl)nc1 [Compound (14), 2-(4-(2-chlorophenyl)-5-((E)-2-(5-(4-chlorophenyl)-1,3,4-oxadiazol-2-yl)vinyl)-4H-1,2,4-triazol-3-yl)-5-(methylsulfonyl)pyridine]	371 min	40 nM	
CS(=O)(=O)c1ccc(-c2nnc(C#Cc3nnc(-c4ccc(C#N)cc4)o3)n2-c2ccccc2Cl)nc1 [Compound (33), 4-{5-[4-(2-Chloro-phenyl)-5-(5-methanesulfonyl-pyridin-2-yl)-4H-[1,2,4]triazol-3-ylethynyl]-[1,3,4]oxadiazol-2-yl}-benzonitrile]		3600 nM	
CS(=O)(=O)c1ccc(-c2nnc(/C=C/c3nnc(-c4ccc(C#N)cc4)o3)n2-c2ccc(OC(F)(F)F)cc2Cl)nc1 [Compound (56)]		390 nM	
N#Cc1ccc(-c2nnc(/C=C/c3nnc(-c4ccc(OCC(F)(F)F)cn4)n3-c3ccccc3Cl)o2)cc1 [Compound (57), 4-[5-(2-{4-(2-Chloro-phenyl)-5-[5-(2,2,2-trifluoro-ethoxy)-pyridin-2-yl]-4H-[1,2,4]triazol-3-yl}-vinyl)-[1,3,4]oxadiazol-2-yl]-benzonitrile]		100 nM	
CS(=O)(=O)c1ccc(-c2nnc(/C(F)=C(\F)c3nnc(-c4ccc(C#N)cc4)o3)n2-c2ccccc2Cl)nc1 [Compound (58), 4-(5-{2-[4-(2-Chloro-phenyl)-5-(5-methanesulfonyl-pyridin-2-yl)-4H-[1,2,4]triazol-3-yl]-1,2-difluoro-vinyl}-[1,3,4]oxadiazol-2-yl)-benzonitrile]		> 10000 nM	
